The results in this text go back to US12502380B2, “MrgprX2 antagonists for the treatment of inflammatory disorders” (Dermira, Inc., priority 2019, dated 2025).

The target of this assay is T1, Human MrgprX2 (Homo sapiens, UniProt Q96LB1).
T1 construct: expressed in transfected cells
T1 sequence (Q96LB1 1-330): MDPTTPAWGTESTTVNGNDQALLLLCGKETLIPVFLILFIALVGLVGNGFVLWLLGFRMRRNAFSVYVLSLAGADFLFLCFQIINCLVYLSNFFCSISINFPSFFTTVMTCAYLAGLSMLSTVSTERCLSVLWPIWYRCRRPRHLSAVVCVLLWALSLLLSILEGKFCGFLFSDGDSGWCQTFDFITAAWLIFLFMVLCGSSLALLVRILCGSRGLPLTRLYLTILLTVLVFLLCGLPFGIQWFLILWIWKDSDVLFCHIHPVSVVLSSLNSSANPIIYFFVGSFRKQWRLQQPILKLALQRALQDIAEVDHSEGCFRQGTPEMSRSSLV
The assay can be described thus: Human MrgprX2 antagonist FLIPR intracellular calcium mobilization assay. To be noted: antagonist activity, recombinant hMrgpMRGPRX2 expressing cells, read-out: Human MrgprX2 Antagonist pIC50 (converted). Type of assay: cell-based. The text has this: Potent and selective hMrgpMRGPRX2 compounds have been generated from compounds identified during a high throughput screening (HTS) campaign and followed up with cycles of structure activity based medicinal chemistry efforts. These compounds were characterized in recombinant hMrgpMRGPRX2 expressing cells for their antagonist activity and the potency was confirmed in the human mast cell line LAD-2, where the target is endogenously expressed. The assays used to determine potencies are functional read-out looking at intracellular calcium mobilization using the FLIPR™ technology. In these FLIPR assays, we test the identified compounds using recombinant cellular systems expressing mouse MrgprB2, mouse MrgprA1, gerbil MrgpMRGPRX2 orthologue, Chinese hamster MrgpMRGPRX2 orthologue and cynomolgus monkey MrgpMRGPRX2 orthologue, respectively for orthologue activity.
In general terms: Calcium assays in cells follow changes in intracellular calcium, usually with a dye or a luminescent sensor.
With `CC1(C(=O)Nc2ncc(Cc3cc(F)ccc3F)s2)CCOCC1` [Compound E092, N-[5-[(2,5-difluorophenyl)methyl]thiazol-2-yl]-4-methyl-tetrahydropyran-4-carboxamide], the IC50 is 100 nM.
The same measure for `CC(C)C(=O)Nc1ncc(Cc2cc(F)ccc2F)s1` [Compound E093]: 6.31 nM; for `C[C@H](O)CN(C)C(=O)Nc1ncc(Oc2cccc(C#N)c2F)s1` [Compound E198]: 398 nM.
Under `C[C@]1(C(=O)Nc2ncc(Cc3cccc(F)c3)s2)CCOC1` (single isomer, unassigned) [Compound E049, N-[5-[(3-fluorophenyl)methyl]thiazol-2-yl]-3-methyl-tetrahydrofuran-3-carboxamide] stands 200 nM.
For the compound `C[C@@H](O)CN(C)C(=O)Nc1ncc(Cc2cc(F)cc(F)c2)s1` [Compound E133], the IC50 was 6.31 nM.
For `CN1CCC[C@@H]1C(=O)Nc1ncc(Oc2ccc(C#N)cc2)s1` [Compound E087, (2R)—N-[5-(4-cyanophenoxy)thiazol-2-yl]-1-methyl-pyrrolidine-2-carboxamide], the IC50 was 2510 nM.
The same measure for `CC(C)C(=O)Nc1ncc(Cc2cccc(C(F)(F)F)c2)s1` [Compound E002]: 7940 nM.
The same measure for `CN(CC1(O)CC1)C(=O)Nc1ncc(Cc2cccc(F)c2)s1` [Compound E122]: 6.31 nM; for `C[C@H](O)CN(C)C(=O)Nc1ncc(Oc2ccccc2F)s1` [Compound E168]: 3.98 nM; for `CN(C[C@@H](O)C(F)(F)F)C(=O)Nc1ncc(Cc2cccc(F)c2)s1` [Compound E111]: 3.16 nM.
`CCN(C[C@@H](C)O)C(=O)Nc1ncc(Oc2ccc(C#N)cc2)s1` [Compound E211]: the IC50 is 398 nM.
Under `CC(C)(F)C(=O)Nc1ncc(Cc2ccccc2F)s1` [Compound E021] stands 251 nM.
The same measure for `C[C@H](C(=O)Nc1ncc(Cc2cccc(F)c2)s1)N(C)S(N)(=O)=O` [Compound E068]: 631 nM; for `CC1(C(=O)Nc2ncc(Cc3cc(F)cc(F)c3)s2)COC1` [Compound E047]: 25.1 nM; for `C[C@@H](CO)C(=O)Nc1ncc(Cc2cccc(F)c2)s1` [Compound E031]: 2000 nM.
Under `CCN(C[C@H](C)O)C(=O)Nc1ncc(Oc2ccc(C#N)c(F)c2)s1` [Compound E163] stands 1 nM; under `CCN(C[C@@H](C)O)C(=O)Nc1ncc(Oc2cc(F)cc(C#N)c2)s1` [Compound E210], 2.51 nM.
With `CC(C)NC(=O)c1cc(Cc2cc(F)cc(F)c2)on1` [Compound E221, 5-[(3,5-difluorophenyl)methyl]-N-isopropyl-isoxazole-3-carboxamide], the IC50 was 6310 nM.
Under `CC(C)C(=O)Nc1nc(C#N)c(Oc2ccc(F)cc2)s1` [Compound E081] stands 2510 nM; under `CCN(C[C@H](C)O)C(=O)Nc1ncc(Cc2cccc(Cl)c2)s1` [Compound E098, 3-[5-[(3-chlorophenyl)methyl]thiazol-2-yl]-1-ethyl-1-[(2S)-2-hydroxypropyl]urea], 3.16 nM; under `CCN(C[C@H](C)O)C(=O)Nc1ncc(Oc2ccccc2)s1` [Compound E155], 0.631 nM.
With `CC(C)C(=O)Nc1ncc(Oc2cccc(F)c2)s1` [Compound E076], the IC50 was 1.26 nM.
Under `CCN(C[C@H](C)O)C(=O)Nc1ncc(Oc2cccc(C(F)(F)F)c2)s1` [Compound E183] stands 3.16 nM; under `CC1(C(=O)Nc2ncc(Cc3cc(F)cc(F)c3)s2)CCOC1` (stereo not shown) [Compound E046, N-[5-[(3,5-difluorophenyl)methyl]thiazol-2-yl]-3-methyl-tetrahydrofuran-3-carboxamide], 5.01 nM.
Under `CCN(C[C@H](C)O)C(=O)Nc1ncc(Oc2cc(F)cc(C#N)c2)s1` [Compound E188] stands 1.26 nM; under `NS(=O)(=O)N1CCC[C@@H]1C(=O)Nc1ncc(Oc2ccccc2)s1` [Compound E086, (2R)—N-(5-phenoxythiazol-2-yl)-1-sulfamoyl-pyrrolidine-2-carboxamide], 15.8 nM; under `CC(C)N(C)C(=O)c1ncc(Cc2cccc(F)c2)s1` [Compound E218, 5-[(3-fluorophenyl)methyl]-N-isopropyl-N-methyl-thiazole-2-carboxamide], 7940 nM.
Turning to `CCN(C[C@H](C)O)C(=O)Nc1ncc(Oc2cncc(C)c2)s1` [Compound E178], the IC50 is 31.6 nM.
Turning to `CC(C)(C)OC(=O)N1CCC(C)(C(=O)Nc2ncc(Cc3ccccc3F)s2)CC1` [Compound E018], the IC50 was 316 nM.
In the case of `C[C@H](O)CN(C)C(=O)Nc1ncc(Cc2ccc(F)cc2)s1` [Compound E130], the IC50 was 200 nM.
Under `CC(C)(C(=O)Nc1ncc(Cc2ccc(F)cc2)s1)N1CCOCC1` [Compound E006] stands 126 nM; under `CC1(C(=O)Nc2ncc(Cc3ccccc3F)s2)CCN(S(C)(=O)=O)CC1` [Compound E060, N-[5-[(2-fluorophenyl)methyl]thiazol-2-yl]-4-methyl-1-methylsulfonyl-piperidine-4-carboxamide], 2510 nM; under `O=C(Nc1ncc(Cc2ccccc2F)s1)C1CCOC1` (stereo not shown) [Compound E008], 3980 nM.
Under `CC(C(=O)Nc1ncc(Cc2ccccc2F)s1)N1CCOCC1` (stereo not shown) [Compound E009] stands 316 nM.
Under `NS(=O)(=O)N1CCC[C@H]1C(=O)Nc1ncc(Cc2cccc(F)c2)s1` [Compound E062] stands 3980 nM; under `CCN(C[C@H](C)O)C(=O)Nc1ncc(Oc2ccc(CC#N)cc2)s1` [Compound E213], 1260 nM.
For the compound `C[C@H](O)CN(C)C(=O)Nc1ncc(Oc2ccccc2C#N)s1` [Compound E174], the IC50 is 631 nM.
Under `O=C(Nc1ncc(Cc2cccc(F)c2)s1)C1(C(F)(F)F)CC1` [Compound E027] stands 100 nM.
The same measure for `O=C(Nc1ncc(Cc2cccc(F)c2)s1)C1(O)CC1` [Compound E026]: 2510 nM.
The same measure for `CC(C)C(=O)Nc1ncc(Nc2ccccc2)s1` [Compound E072]: 1260 nM; for `CC1(C(=O)Nc2ncc(Cc3ccccc3F)s2)COC1` [Compound E016]: 3980 nM.
Consider `C[C@H](O)CN(C)C(=O)Nc1ncc(Cc2cccc(F)c2)s1` [Compound E101], for which the IC50 was 39.8 nM.
With `CCN(C[C@H](C)O)C(=O)Nc1ncc(Oc2ccc(F)cc2)s1` [Compound E154], the IC50 was 0.631 nM.
For `CCN(C[C@H](C)O)C(=O)Nc1ncc(Cc2cc(F)cc(C#N)c2)s1` [Compound E146], the IC50 was 39.8 nM.
Under `CCN(C[C@H](C)O)C(=O)Nc1ncc(Oc2cc(F)ccc2C#N)s1` [Compound E196] stands 316 nM; under `C[C@H](O)CN(C)C(=O)Nc1ncc(Cc2cccc(F)c2F)s1` [Compound E137], 10 nM; under `C[C@H]1CN(C(=O)Nc2ncc(Cc3cccc(F)c3)s2)CCO1` [Compound E107], 3980 nM.
The same measure for `CCN(C[C@H](C)O)C(=O)Nc1ncc(Oc2ccnc(C#N)c2)s1` [Compound E181]: 2510 nM.
For `CCN(C[C@H](C)O)C(=O)Nc1ncc(Oc2cccc(Cl)c2)s1` [Compound E153], the IC50 was 0.794 nM.
The same measure for `C[C@]1(C(=O)Nc2ncc(Cc3cccc(F)c3)s2)CCCN1S(N)(=O)=O` [Compound E063]: 3.16 nM; for `CN1CCC[C@H]1C(=O)Nc1ncc(Cc2cccc(F)c2)s1` [Compound E058, (2S)—N-[5-[(3-fluorophenyl)methyl]thiazol-2-yl]-1-methyl-pyrrolidine-2-carboxamide]: 126 nM; for `COC(C)(C)C(=O)Nc1ncc(Cc2ccccc2F)s1` [Compound E019]: 251 nM.
For the compound `C[C@H](O)CN(C)C(=O)Nc1ncc(Cc2cccc(C#N)c2)s1` [Compound E144], the IC50 was 1580 nM.
The same measure for `C[C@]1(C(=O)Nc2ncc(Cc3cccc(Cl)c3)s2)CCOC1` (single isomer, unassigned) [Compound E051, N-[5-[(3-chlorophenyl)methyl]thiazol-2-yl]-3-methyl-tetrahydrofuran-3-carboxamide]: 100 nM; for `CC1(C(=O)Nc2ncc(Cc3cc(F)ccc3F)s2)COC1` [Compound E096]: 50.1 nM; for `CCN1CCC[C@@H]1C(=O)Nc1ncc(Oc2ccc(C#N)cc2)s1` [Compound E088, (2R)—N-[5-(4-cyanophenoxy)thiazol-2-yl]-1-ethyl-pyrrolidine-2-carboxamide]: 3160 nM.
The same measure for `C[C@H](O)CN(C)C(=O)Nc1ncc(Oc2cc(C#N)ccc2F)s1` [Compound E194]: 501 nM; for `NS(=O)(=O)N1CC[C@@H]1C(=O)Nc1ncc(Cc2cccc(F)c2)s1` [Compound E065]: 79.4 nM.
`CC(C)C(=O)Nc1ncc(Cc2cc(F)cc(F)c2)s1` [Compound E041]: the IC50 was 2 nM.
The same measure for `C[C@]1(C(=O)Nc2ncc(Cc3cc(F)cc(F)c3)s2)CCOC1` (single isomer, unassigned) [Compound E053, N-[5-[(3,5-difluorophenyl)methyl]thiazol-2-yl]-3-methyl-tetrahydrofuran-3-carboxamide]: 7.94 nM; for `CCN(CCO)C(=O)Nc1ncc(Cc2cccc(F)c2)s1` [Compound E115]: 251 nM.
